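A five-concentration, 48-hour dose response in 96-well plates underlies each endpoint, interpolated linearly between surrounding concentrations. GI50: concentration for 50% inhibition of growth. Definition used: TGI = concentration required for complete inhibition of growth.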
Tests used:
Test in all cases: NCI-60 cell line screen, 48 h
[1] = system: M14 melanoma
[2] = system: KM12 colon
[3] = system: SF-268 CNS
[4] = system: HCT-116 colon
[5] = system: NCI-H460 lung
[6] = system: NCI/ADR-RES ovarian
[7] = system: LOX IMVI melanoma
[8] = system: ACHN renal
[9] = system: MALME-3M melanoma
[10] = system: U251 CNS
[11] = system: HS 578T breast
[12] = system: UACC-257 melanoma
[13] = system: SF-539 CNS
[14] = system: SN12C renal
[15] = system: MOLT-4 leukemia
[16] = system: 786-0 renal
[17] = system: HCT-15 colon
[18] = system: SR leukemia
[19] = system: SK-MEL-28 melanoma
[20] = system: UO-31 renal
[21] = system: HOP-62 NSCLC
[22] = system: NCI-H522 lung
[23] = system: SK-OV-3 ovarian
[24] = system: OVCAR-3 ovarian
[25] = system: HT29 colon
[26] = system: A549 NSCLC
[27] = system: K-562 leukemia
[28] = system: SK-MEL-5 melanoma
[29] = system: DU-145 prostate
[30] = system: CAKI-1 renal
[31] = system: COLO 205 colon
[32] = system: CCRF-CEM leukemia
[33] = system: OVCAR-5 ovarian
[34] = system: HCC-2998 colon
[35] = system: T-47D breast
[36] = system: IGROV1 ovarian
[37] = system: MDA-MB-231 breast
[38] = system: UACC-62 melanoma
[39] = system: NCI-H226 lung
[40] = system: BT-549 breast
[41] = system: A498 renal
[42] = system: HOP-92 NSCLC
[43] = system: SF-295 CNS
[44] = system: SNB-75 CNS
[45] = system: SNB-19 CNS
[46] = system: OVCAR-8 ovarian
[47] = system: RXF 393 renal
[48] = system: EKVX NSCLC
[49] = system: SK-MEL-2 melanoma
[50] = system: PC-3 prostate
[51] = system: MCF7 breast
[52] = system: TK-10 renal
[53] = system: SW-620 colon
[54] = system: MDA-MB-435
[55] = system: OVCAR-4 ovarian
[56] = system: RPMI-8226 leukemia
[57] = system: NCI-H23 lung

## COc1ccc(C2C(C#N)=C(N)Oc3c2sc2ccc(C)cc32)cc1 (configuration not stated)
[1]
  GI50: 2.84 µM
  TGI: 14.6 µM
[2]
  GI50: 3.81 µM
  TGI: > 100 µM
[3]
  GI50: 5.24 µM
  TGI: > 100 µM
[4]
  GI50: 3.68 µM
  TGI: 83.9 µM
[5]
  GI50: 3.41 µM
  TGI: 18.3 µM
[6]
  GI50: 3.34 µM
  TGI: > 100 µM
[7]
  GI50: 5.92 µM
  TGI: > 100 µM
[8]
  GI50: 6.44 µM
  TGI: > 100 µM
[9]
  GI50: 3.56 µM
  TGI: 62.3 µM
[10]
  GI50: 3.78 µM
  TGI: 27.5 µM
[11]
  GI50: 3.31 µM
  TGI: 36.8 µM
[12]
  GI50: 4.03 µM
  TGI: > 100 µM
[13]
  GI50: 3.21 µM
  TGI: 13.4 µM
[14]
  GI50: 4.46 µM
  TGI: > 100 µM
[15]
  GI50: 3.63 µM
  TGI: > 100 µM
[16]
  GI50: 3.64 µM
  TGI: 15.1 µM
[17]
  GI50: 3.35 µM
  TGI: > 100 µM
[18]
  GI50: 2.42 µM
  TGI: > 100 µM
[19]
  GI50: 5.86 µM
  TGI: > 100 µM
[20]
  GI50: 3.56 µM
  TGI: > 100 µM
[21]
  GI50: 3.71 µM
  TGI: 28.1 µM
[22]
  GI50: 1.24 µM
  TGI: 4.48 µM
[23]
  GI50: 5.2 µM
  TGI: 54.8 µM
[24]
  GI50: 3.71 µM
  TGI: > 100 µM
[25]
  GI50: 3.14 µM
  TGI: 9.79 µM
[26]
  GI50: 6.94 µM
  TGI: > 100 µM
[27]
  GI50: 1.56 µM
  TGI: > 100 µM
[28]
  GI50: 10.7 µM
  TGI: > 100 µM
[29]
  GI50: 7.08 µM
  TGI: > 100 µM
[30]
  GI50: 3.52 µM
  TGI: 56.4 µM
[31]
  GI50: 3.7 µM
  TGI: > 100 µM
[32]
  GI50: 3.78 µM
  TGI: > 100 µM
[33]
  GI50: 5.77 µM
  TGI: > 100 µM
[34]
  GI50: 6.37 µM
  TGI: > 100 µM
[35]
  GI50: 3.13 µM
  TGI: > 100 µM
[36]
  GI50: 4.64 µM
  TGI: > 100 µM
[37]
  GI50: 9.6 µM
  TGI: 86.7 µM
[38]
  GI50: 3.26 µM
  TGI: 49.9 µM
[39]
  GI50: 3.92 µM
  TGI: 57.5 µM
[40]
  GI50: 2.7 µM
  TGI: 7.68 µM
[41]
  GI50: 47 µM
  TGI: > 100 µM
[42]
  GI50: 1.05 µM
  TGI: 7.07 µM
[43]
  GI50: 3.93 µM
  TGI: 28.6 µM
[44]
  GI50: 1.9 µM
  TGI: 5.51 µM
[45]
  GI50: 6.01 µM
  TGI: 86.7 µM
[46]
  GI50: 9.93 µM
  TGI: > 100 µM
[47]
  GI50: 2.64 µM
  TGI: 9.98 µM
[48]
  GI50: 7.35 µM
  TGI: > 100 µM
[49]
  GI50: 2.2 µM
  TGI: 7.49 µM
[50]
  GI50: 3.46 µM
  TGI: > 100 µM
[51]
  GI50: 1.25 µM
  TGI: > 100 µM
[52]
  GI50: 23 µM
  TGI: > 100 µM
[53]
  GI50: 2.81 µM
  TGI: > 100 µM
[54]
  GI50: 0.568 µM
  TGI: 2.17 µM
[55]
  GI50: 8.07 µM
  TGI: > 100 µM
[56]
  GI50: 3.95 µM
  TGI: > 100 µM

## N#Cc1c(NC(=O)c2ccc(F)c(Cl)c2)sc2c1CCC(=O)C2
[1]
  GI50: 0.365 µM
  TGI: 1.75 µM
[2]
  GI50: 0.419 µM
  TGI: 1.93 µM
[3]
  GI50: 0.89 µM
  TGI: 6.36 µM
[4]
  GI50: 0.233 µM
  TGI: 1.11 µM
[5]
  GI50: 1.94 µM
  TGI: > 33.3 µM
[6]
  GI50: 0.449 µM
  TGI: > 100 µM
[7]
  GI50: 0.404 µM
  TGI: 4.44 µM
[8]
  GI50: 0.349 µM
  TGI: 1.08 µM
[9]
  GI50: 0.485 µM
  TGI: 1.69 µM
[10]
  GI50: 0.353 µM
  TGI: 1.36 µM
[11]
  GI50: 0.523 µM
  TGI: 3.76 µM
[12]
  GI50: 1.52 µM
  TGI: 4.26 µM
[13]
  GI50: 0.312 µM
  TGI: 1.15 µM
[14]
  GI50: 0.351 µM
  TGI: 1.56 µM
[15]
  GI50: 0.332 µM
  TGI: > 26 µM
[16]
  GI50: 0.389 µM
  TGI: 5.78 µM
[17]
  GI50: 0.368 µM
  TGI: 2.06 µM
[20]
  GI50: 0.298 µM
  TGI: 1.17 µM
[21]
  GI50: 2.51 µM
  TGI: > 28.3 µM
[22]
  GI50: 0.2 µM
  TGI: 0.671 µM
[23]
  GI50: 1.47 µM
  TGI: 3.03 µM
[25]
  GI50: 0.347 µM
  TGI: 1.31 µM
[26]
  GI50: 2.64 µM
  TGI: > 29.2 µM
[27]
  GI50: 0.301 µM
  TGI: > 100 µM
[28]
  GI50: 1.23 µM
  TGI: 2.59 µM
[29]
  GI50: 4.04 µM
  TGI: > 100 µM
[30]
  GI50: 0.302 µM
  TGI: 1.13 µM
[31]
  GI50: 0.423 µM
  TGI: 1.38 µM
[32]
  GI50: 0.216 µM
  TGI: > 24.4 µM
[33]
  GI50: 0.728 µM
  TGI: 3.02 µM
[34]
  GI50: 1.32 µM
  TGI: 3.33 µM
[36]
  GI50: 0.592 µM
  TGI: 2.38 µM
[38]
  GI50: 0.426 µM
  TGI: 1.94 µM
[39]
  GI50: 2.04 µM
  TGI: 6.25 µM
[40]
  GI50: 0.223 µM
  TGI: 0.696 µM
[41]
  GI50: 2.4 µM
  TGI: 6.44 µM
[42]
  GI50: 0.231 µM
  TGI: 0.724 µM
[57]
  GI50: 0.371 µM
  TGI: 2.08 µM
[43]
  GI50: 1.12 µM
  TGI: 3.89 µM
[44]
  GI50: 1.42 µM
  TGI: 4.21 µM
[45]
  GI50: 0.672 µM
  TGI: 10.4 µM
[47]
  GI50: 0.353 µM
  TGI: 1.3 µM
[48]
  GI50: 1.06 µM
  TGI: 4.8 µM
[50]
  GI50: 0.237 µM
  TGI: 1.35 µM
[51]
  GI50: 0.337 µM
  TGI: 15 µM
[52]
  GI50: 0.44 µM
  TGI: 2.02 µM
[53]
  GI50: 0.406 µM
  TGI: 1.87 µM
[54]
  GI50: 0.436 µM
  TGI: 2.4 µM
[55]
  GI50: 0.578 µM
  TGI: 2 µM
[56]
  GI50: 0.155 µM
  TGI: 0.684 µM

From PubChem BioAssay (NCI)
